Data as given in paper PMC9014634 (Journal of Pharmacological Sciences, 2022).

Assay: in vitro
Type: cell-based
Conditions: human

SMILES | CC50 [µM]
C[C@]12C=CC(=O)C=C1CC[C@@H]1[C@@H]2[C@@H](O)C[C@@]2(C)[C@H]1C[C@H]1O[C@@H](C3CCCCC3)O[C@]12C(=O)CO [Cic2, desisobutyryl ciclesonide] | > 30
CC(C)C(=O)OCC(=O)[C@@]12O[C@H](C3CCCCC3)O[C@@H]1C[C@H]1[C@@H]3CCC4=CC(=O)C=C[C@]4(C)[C@H]3[C@@H](O)C[C@@]12C [Cic, Ciclesonide] | > 30
